Source: patent EP1247803A2, “Indolinone compounds suitable for modulation of protein kinases” (Sugen, Inc., priority 1996, dated 1998)

molecular target: T1, FLK-1 receptor (Mus musculus, UniProt P35918); experiment: FLK-1 ELISA (kinase activity of the FLK-1 receptor in FLK-1/NIH3T3 cells, VEGF stimulated); format: cell-based; parameters: concentration or dose not given beside the values
T1 construct: expressed in transfected cells; host or cells: NIH3T3 C7#3
How it was run: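 FLK-1-expressing NIH3T3 C7#3 cells, starved overnight in 0.1% FBS medium, were treated with compounds at a 1:200 final dilution (0.5% DMSO) for 2 h at 37 °C, with VEGF stimulation. FLK-1 kinase activity was read by ELISA on anti-rabbit IgG plates using affinity-purified anti-FLK-1 antiserum.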

T1 sequence (P35918 20-1345): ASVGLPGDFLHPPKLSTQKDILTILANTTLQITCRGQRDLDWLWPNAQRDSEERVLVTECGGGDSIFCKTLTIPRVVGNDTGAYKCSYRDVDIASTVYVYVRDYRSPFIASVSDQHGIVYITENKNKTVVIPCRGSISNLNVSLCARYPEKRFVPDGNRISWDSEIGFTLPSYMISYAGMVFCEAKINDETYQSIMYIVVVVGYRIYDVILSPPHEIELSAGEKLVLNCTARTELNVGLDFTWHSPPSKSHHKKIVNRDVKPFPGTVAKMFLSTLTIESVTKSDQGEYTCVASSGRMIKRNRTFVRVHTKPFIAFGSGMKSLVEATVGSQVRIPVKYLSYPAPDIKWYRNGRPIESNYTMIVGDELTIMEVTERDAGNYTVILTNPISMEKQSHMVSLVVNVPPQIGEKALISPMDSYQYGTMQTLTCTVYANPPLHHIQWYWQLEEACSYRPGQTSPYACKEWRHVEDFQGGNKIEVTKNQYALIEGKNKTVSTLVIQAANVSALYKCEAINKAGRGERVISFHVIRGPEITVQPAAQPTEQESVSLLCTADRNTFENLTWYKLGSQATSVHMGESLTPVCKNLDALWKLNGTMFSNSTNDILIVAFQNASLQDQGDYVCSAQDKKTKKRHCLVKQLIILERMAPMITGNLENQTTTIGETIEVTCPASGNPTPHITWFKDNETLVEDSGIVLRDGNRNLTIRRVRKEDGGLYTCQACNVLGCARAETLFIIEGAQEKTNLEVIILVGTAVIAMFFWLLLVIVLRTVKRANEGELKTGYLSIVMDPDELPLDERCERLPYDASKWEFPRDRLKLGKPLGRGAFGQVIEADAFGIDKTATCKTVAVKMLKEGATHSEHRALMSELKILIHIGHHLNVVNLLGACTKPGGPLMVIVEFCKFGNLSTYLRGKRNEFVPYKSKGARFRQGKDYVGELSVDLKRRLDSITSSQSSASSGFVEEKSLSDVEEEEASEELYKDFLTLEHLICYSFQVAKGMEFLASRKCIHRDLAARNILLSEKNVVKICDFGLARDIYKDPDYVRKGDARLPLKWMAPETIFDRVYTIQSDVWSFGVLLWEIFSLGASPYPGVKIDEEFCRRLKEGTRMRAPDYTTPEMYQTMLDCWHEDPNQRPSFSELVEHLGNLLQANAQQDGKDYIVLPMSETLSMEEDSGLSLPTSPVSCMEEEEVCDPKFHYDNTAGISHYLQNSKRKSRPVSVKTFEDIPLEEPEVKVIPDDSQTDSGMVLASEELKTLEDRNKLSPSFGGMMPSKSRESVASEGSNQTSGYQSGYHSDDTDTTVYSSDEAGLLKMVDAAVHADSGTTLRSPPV

Row | SMILES | Fik Kinase %Inhibition
1 | COc1cccc(O)c1C=C1C(=O)Nc2c(Br)cc(Br)cc21 [10717/A10] | -3.3%
2 | CNS(=O)(=O)c1ccc2c(c1)C(=Cc1c(C)[nH]c(C(=O)OC)c1C(=O)OC)C(=O)N2 [10718/D07] | 7.8%
3 | CNS(=O)(=O)c1ccc2c(c1)C(=Cc1ccc(Cl)c([N+](=O)[O-])c1)C(=O)N2 [10718/D08] | 3.9%
4 | CNS(=O)(=O)c1ccc2c(c1)C(=Cc1ccc(O)c(C)c1O)C(=O)N2 [10718/D09] | -9.1%
5 | CNS(=O)(=O)c1ccc2c(c1)C(=Cc1ccco1)C(=O)N2 [10718/D10] | 15.0%
6 | CNS(=O)(=O)c1ccc2c(c1)C(=Cc1ccc([N+](=O)[O-])o1)C(=O)N2 [10718/D11] | 13.3%
7 | CCOC(=O)c1c(C)[nH]c(C=C2C(=O)Nc3ccc(S(=O)(=O)Nc4ccc(C(F)(F)F)cc4)cc32)c1C [10718/E02] | 19.7%
8 | COc1cc(Br)c(O)c(C=C2C(=O)Nc3ccc(S(=O)(=O)Nc4ccc(C(F)(F)F)cc4)cc32)c1 [10718/E03] | 10.0%
9 | CNS(=O)(=O)c1ccc2c(c1)C(=Cc1cc(I)c(OC)c(C(C)(C)C)c1)C(=O)N2 [10732/D11] | 18.8%
10 | O=C1Nc2ccc(S(=O)(=O)Nc3ccc(C(F)(F)F)cc3)cc2C1=CC(c1cccs1)C(F)(F)F (stereo not drawn) [10732/E02] | 13.1%
11 | COc1c(C(C)C)cc(C=C2C(=O)Nc3ccc(S(=O)(=O)Nc4ccc(C(F)(F)F)cc4)cc32)cc1C(C)C [10732/E03] | 16.7%
12 | CC(C)c1cc(C=C2C(=O)Nc3ccc(S(=O)(=O)Nc4ccc(C(F)(F)F)cc4)cc32)cc(C(C)C)c1Oc1ccccc1 [10732/E04] | 15.8%
13 | COc1ccc(C=C2C(=O)Nc3ccc(S(=O)(=O)Nc4ccc(C(F)(F)F)cc4)cc32)cc1C(C)(C)C [10732/E05] | 18.7%
14 | CC(C)(C)c1cc(C=C2C(=O)Nc3ccc(S(=O)(=O)Nc4ccc(C(F)(F)F)cc4)cc32)ccc1OCc1ccccc1 [10732/E06] | 2.8%
15 | COc1c(Br)cc(C=C2C(=O)Nc3ccc(S(=O)(=O)Nc4ccc(C(F)(F)F)cc4)cc32)cc1C(C)(C)C [10732/E07] | 21.3%
16 | CC(C)(C)c1cc(C=C2C(=O)Nc3ccc(S(=O)(=O)Nc4ccc(C(F)(F)F)cc4)cc32)cc(Br)c1OCc1ccccc1 [10732/E08] | 13.6%
17 | COc1c(Cl)cc(C=C2C(=O)Nc3ccc(S(=O)(=O)Nc4ccc(C(F)(F)F)cc4)cc32)cc1C(C)(C)C [10732/E09] | 15.3%
18 | CC(C)(C)c1cc(C=C2C(=O)Nc3ccc(S(=O)(=O)Nc4ccc(C(F)(F)F)cc4)cc32)cc(Cl)c1OCc1ccccc1 [10732/E10] | 16.7%
19 | COc1c(I)cc(C=C2C(=O)Nc3ccc(S(=O)(=O)Nc4ccc(C(F)(F)F)cc4)cc32)cc1C(C)(C)C [10732/E11] | 16.2%
20 | O=C1Nc2ccc(S(=O)(=O)N3CCOCC3)cc2C1=CC(c1cccs1)C(F)(F)F (stereo not drawn) [10732/F02] | 7.0%
21 | COc1c(C(C)C)cc(C=C2C(=O)Nc3ccc(S(=O)(=O)N4CCOCC4)cc32)cc1C(C)C [10732/F03] | 31.9%
22 | CC(C)c1cc(C=C2C(=O)Nc3ccc(S(=O)(=O)N4CCOCC4)cc32)cc(C(C)C)c1Oc1ccccc1 [10732/F04] | 16.2%
23 | COc1ccc(C=C2C(=O)Nc3ccc(S(=O)(=O)N4CCOCC4)cc32)cc1C(C)(C)C [10732/F05] | 37.3%
24 | CC(C)(C)c1cc(C=C2C(=O)Nc3ccc(S(=O)(=O)N4CCOCC4)cc32)ccc1OCc1ccccc1 [10732/F06] | 11.6%
25 | COc1c(Br)cc(C=C2C(=O)Nc3ccc(S(=O)(=O)N4CCOCC4)cc32)cc1C(C)(C)C [10732/F07] | 31.0%
26 | CC(C)(C)c1cc(C=C2C(=O)Nc3ccc(S(=O)(=O)N4CCOCC4)cc32)cc(Br)c1OCc1ccccc1 [10732/F08] | 12.6%
27 | COc1c(Cl)cc(C=C2C(=O)Nc3ccc(S(=O)(=O)N4CCOCC4)cc32)cc1C(C)(C)C [10732/F09] | 25.6%
